Data published in publication PMC9612231, “Antileishmanial Anthracene Endoperoxides: Efficacy In Vitro, Mechanisms and Structure-Activity Relationships” (Molecules, 2022).

Experiments:
LtP [1] = test: Superoxide radical formation in LtP by the EPR/CMH method; format: cell-based, Leishmania tarentolae; settings: 20 min at 25 °C; for Superoxide formation in LtP (CMH oxidation), in words: 100 µM compound
From the text: Since mitochondrial inhibition can be triggered by secondary damage in the respective cells, for example, by superoxide radicals, we studied the formation of superoxide radicals in LtP by the EPR/hydroxyl-3-methoxycarbonyl-2,2,5,5-tetramethylpyrrolidine hydrochloride (CMH) method (Figure 10). […] In the presence of antimycin A (AA, an inhibitor of mitochondrial complex III), the superoxide radical formation in LtP is increased by more than 150% (Figure 11).
An aliquot of the LtP cell culture equivalent to 5 × 10^8 LtP was transferred into a 1.5 mL Eppendorf tube and was centrifuged (Hettich Universal 16, 20 °C, 2000× g, 10 min). After removal of the supernatant, the cell pellet was re-suspended in 1 mL PBS and centrifuged again and the supernatant discarded. The cell pellet was re-suspended in 1 mL of PBS with 15 mM glucose (PBS-gluc), giving a final cell density of 5 × 10^8 LtP/mL. AcEP/Ac compounds were added (100 µM final concentration) to aliquots of 50 µL of this cell suspension in 1.5 mL Eppendorf tubes and incubated for 20 min at 25 °C. Then, DFO (100 μM final concentration), DTPA (25 μM final concentration), and detection agent CMH (400 µM final concentration) were added to the aliquots before measurement. Samples containing only buffer (PBS-gluc) or only LtP (in PBS-gluc) were used as negative controls, while samples containing 20 μM AA were used as positive control. An aliquot of 17 µL suspension was aspirated into a PTFE tube (ø 0.7 mm). The tube was folded into a quartz tube (ø 4 mm outer diameter) and then transferred to the MD5 resonator of the EPR spectrometer. The measurement was started using following parameters: microwave frequency 9.682 GHz; microwave power 20 mW, modulation frequency 100 kHz; modulation amplitude 1 G; time constant 0.82 s; center field 3448 G; sweep width 100 G; scan time 84 s; attenuation 70 dB; separate scans 5. Based on a calibration curve with carboxy proxyl (CP^●) changes of the peak-to-peak intensity of CM^● spectra were converted to CMH oxidation rates (superoxide radical generation).

J774 macrophages = test: Cellular oxygen consumption of J774 cells (OxoPlates); format: cell-based, murine; settings: 200 µM compound, 2 × 10^6 cells/mL
From the text: (§1) The experimental data so far indicate that in more complex EP not only the endoperoxyl group contributes to its pharmacological actions. Therefore, mitochondria present in the parasites but also in the host cells could be either a trigger for activating pharmacological actions of these compounds or a target of EP-derived radicals generated at other sites in the cell. In a subsequent experiment, we tested the influence of AcEP and non-endoperoxidic analogs (Ac) on the mitochondrial oxygen consumption in LtP and J774 macrophages (Figure 9).
(§2) Oxygen consumption rates of LtP in complete BHI culture medium and J774 in PBS-gluc treated with AcEPs were measured using round-bottomed OxoPlates (OP96U, Precision Sensing GmbH, Regensburg, Germany). […] Then, the fluorescence of both calibration media was measured at a microplate reader (Perkin Elmer EnSpire, Rodgau, Germany) in a dual kinetic mode, using an excitation wavelength of 540 nm for both dyes and emission wavelengths of 650 nm for the indicator dye and 590 nm for the reference dye. The ratio of both fluorescence intensities (IR) was calculated for each well and averaged giving the two calibration constants k0 (oxygen-free) or k100 (air-saturated). […] Both fluorescence intensities of each well were determined in 5 min intervals over up to 40 min. Each compound was measured in quadruplicates. […]

LtP [2] = test: Cellular oxygen consumption of LtP (OxoPlates); format: cell-based, Leishmania tarentolae; settings: 200 µM compound, 140 × 10^6 cells/mL
From the text: as §1, §2

Row | Structure (SMILES) | Increase of superoxide formation in LtP (LtP [1]; 100 µM Ac/AcEP) | Superoxide formation in LtP (CMH oxidation), in words (LtP [1]) | Inhibition of mitochondrial oxygen consumption in J774 macrophages (J774 macrophages) | Inhibition of mitochondrial oxygen consumption in LtP (LtP [2])
1 | CC(C)(C)c1ccc2c(c1)C1(c3cccnc3)OOC2(c2cccnc2)c2ccccc21 (stereo not drawn) [mPyBuAcEP] | more than 70% | most effective in boosting the superoxide production | more moderate | interfered strongly
2 | CC(C)(C)c1ccc2c(-c3cccnc3)c3ccccc3c(-c3cccnc3)c2c1 [mPyBuAc] | – | most effective in boosting the superoxide production | – | even stronger inhibition
